molecular target: LRRK2 (leucine-rich repeat kinase 2) (Homo sapiens (Human), UniProt Q5S007); test: Inhibitory effect on LRRK2 in vitro (LANCE kinase assay); type: biochemical; settings: Table 1, class symbols; read-out: LRRK2 inhibition rate (IC50)
Protocol: The inhibitory effect of Compounds 1 to 62 on LRRK2 (leucine-rich repeat kinase 2) in vitro was measured. In the analysis of the results, IC50 values were calculated for a quantitative comparison of the in vitro activity.
After the compound was dissolved in 100% DMSO at 10 mM, it was serially diluted to the range of 1 μM to 10 μM using biochemical LRRK2 assay buffer (50 mM HEPES (4-(2-hydroxyethyl)-1-piperazineethanesulfonic acid) pH 7.5, 10 mM MgCl2, 1 mM EGTA (1,2-bis(o-aminophenoxy)ethane-N,N,N′,N′-tetraacetic acid), 2 mM DTT (dithiothreitol), and 0.01% TWEEN-20 (Aldrich)). Purified LRRK2 (CARNA BIOSCIENCES) was added to a black U-bottom 96-well microtiter plate containing 6 μl of the serially diluted compound, followed by incubation at room temperature for 30 minutes. For the kinase reaction, ATP and a substrate solution specific urea-polypeptide (ULIGHT™-poly TK, PerkinElimer) were added. The reaction was carried out at room temperature for 1 hour, and it was detected with an detection solution (brand name: LANCE™) containing EDTA. A LANCE detection solution containing europium-labeled antibody ([…] PT66) was added, followed by incubation at room temperature for 50 minutes, to terminate the kinase experiment. The phosphorylated substrate was detected by 665 nm emission measurement. IC50 values were calculated by a non-linear regression analysis using a Prism program (PRISM™ software) with reference to the absence of a kinase inhibitor.
As a comparative assay, a compound LRR2-IN-1, that known to be a reference compound for LRRK2 inhibitor, have also tested an inhibitory activity.

Sequence of LRRK2 (leucine-rich repeat kinase 2) (Q5S007 whole entry): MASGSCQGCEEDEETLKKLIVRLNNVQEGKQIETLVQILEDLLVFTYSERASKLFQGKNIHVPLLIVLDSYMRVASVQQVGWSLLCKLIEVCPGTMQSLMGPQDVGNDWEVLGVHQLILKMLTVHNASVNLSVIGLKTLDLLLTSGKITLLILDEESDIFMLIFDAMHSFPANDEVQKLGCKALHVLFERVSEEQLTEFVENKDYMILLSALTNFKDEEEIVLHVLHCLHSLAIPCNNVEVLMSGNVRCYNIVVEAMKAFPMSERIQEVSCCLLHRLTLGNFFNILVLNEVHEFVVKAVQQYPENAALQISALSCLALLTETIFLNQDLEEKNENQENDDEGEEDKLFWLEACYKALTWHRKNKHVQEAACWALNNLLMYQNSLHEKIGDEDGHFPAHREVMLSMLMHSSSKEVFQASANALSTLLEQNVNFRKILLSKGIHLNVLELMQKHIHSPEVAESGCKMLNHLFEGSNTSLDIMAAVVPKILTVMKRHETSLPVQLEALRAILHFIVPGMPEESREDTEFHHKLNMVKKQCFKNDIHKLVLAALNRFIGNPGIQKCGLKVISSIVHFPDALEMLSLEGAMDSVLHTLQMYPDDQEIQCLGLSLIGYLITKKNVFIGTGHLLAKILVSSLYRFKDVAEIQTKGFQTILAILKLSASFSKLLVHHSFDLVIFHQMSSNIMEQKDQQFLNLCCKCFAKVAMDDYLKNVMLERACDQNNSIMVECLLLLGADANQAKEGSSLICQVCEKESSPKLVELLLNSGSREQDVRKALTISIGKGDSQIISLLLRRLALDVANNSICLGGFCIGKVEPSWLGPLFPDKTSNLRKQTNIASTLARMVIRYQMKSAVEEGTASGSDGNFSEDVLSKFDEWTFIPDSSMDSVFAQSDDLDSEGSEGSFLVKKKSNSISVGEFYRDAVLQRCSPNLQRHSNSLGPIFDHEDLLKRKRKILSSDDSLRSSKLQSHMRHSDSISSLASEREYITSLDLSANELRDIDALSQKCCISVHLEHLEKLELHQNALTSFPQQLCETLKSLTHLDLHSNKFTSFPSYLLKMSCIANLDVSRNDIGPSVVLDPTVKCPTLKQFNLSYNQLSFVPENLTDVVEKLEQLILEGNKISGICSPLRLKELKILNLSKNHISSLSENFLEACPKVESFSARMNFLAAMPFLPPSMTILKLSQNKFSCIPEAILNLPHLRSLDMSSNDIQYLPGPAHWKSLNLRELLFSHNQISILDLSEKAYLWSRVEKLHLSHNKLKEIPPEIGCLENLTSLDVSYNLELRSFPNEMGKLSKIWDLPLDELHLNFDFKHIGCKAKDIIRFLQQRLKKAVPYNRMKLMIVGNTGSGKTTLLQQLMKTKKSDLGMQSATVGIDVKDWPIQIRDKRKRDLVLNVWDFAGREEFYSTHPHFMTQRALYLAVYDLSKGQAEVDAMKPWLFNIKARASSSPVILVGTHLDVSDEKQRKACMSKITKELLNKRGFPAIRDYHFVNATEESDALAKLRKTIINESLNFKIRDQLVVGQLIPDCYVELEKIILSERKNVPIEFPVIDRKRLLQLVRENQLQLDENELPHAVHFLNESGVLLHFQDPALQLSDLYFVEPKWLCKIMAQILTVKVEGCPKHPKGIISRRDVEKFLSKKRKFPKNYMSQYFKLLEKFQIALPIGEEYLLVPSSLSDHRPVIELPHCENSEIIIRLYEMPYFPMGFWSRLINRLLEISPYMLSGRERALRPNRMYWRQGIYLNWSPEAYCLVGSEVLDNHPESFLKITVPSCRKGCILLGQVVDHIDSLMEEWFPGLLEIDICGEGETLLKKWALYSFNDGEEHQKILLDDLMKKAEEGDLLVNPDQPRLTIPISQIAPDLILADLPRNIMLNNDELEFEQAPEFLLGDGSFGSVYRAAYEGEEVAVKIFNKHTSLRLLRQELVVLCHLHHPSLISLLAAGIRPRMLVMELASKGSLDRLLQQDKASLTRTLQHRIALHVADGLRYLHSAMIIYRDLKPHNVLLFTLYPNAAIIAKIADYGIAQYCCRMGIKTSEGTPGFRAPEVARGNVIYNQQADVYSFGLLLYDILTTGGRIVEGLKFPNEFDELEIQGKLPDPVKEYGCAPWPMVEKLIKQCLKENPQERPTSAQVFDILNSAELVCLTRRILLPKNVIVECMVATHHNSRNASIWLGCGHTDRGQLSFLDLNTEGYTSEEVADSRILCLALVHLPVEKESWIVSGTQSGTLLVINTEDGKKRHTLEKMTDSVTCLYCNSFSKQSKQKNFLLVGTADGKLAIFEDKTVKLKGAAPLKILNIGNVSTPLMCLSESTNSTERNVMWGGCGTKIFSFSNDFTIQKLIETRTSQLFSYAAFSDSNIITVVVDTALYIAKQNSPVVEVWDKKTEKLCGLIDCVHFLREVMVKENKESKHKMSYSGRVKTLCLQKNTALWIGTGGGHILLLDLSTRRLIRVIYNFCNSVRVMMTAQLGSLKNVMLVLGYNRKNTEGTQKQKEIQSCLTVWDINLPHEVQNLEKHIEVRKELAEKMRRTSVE

Q: Cn1ncc(Nc2ncc3c(C(F)(F)F)cn(C)c3n2)c1Cl [Compound 1, N-(5-chloro-1-methyl-1H-pyrazol-4-yl)-7-methyl-5-(trifluoromethyl)-7H-pyrrolo[2,3-d]pyrimidin-2-amine] was tested. Which IC50 did it give?
A: Its IC50 is 100 to 1000 nM.

Q: How did the IC50 turn out when COc1nn(C(C)C)cc1Nc1ncc2c(Cl)cn(C)c2n1 [Compound 2, 5-chloro-N-(1-isopropyl-3-methoxy-1H-pyrazol-4-yl)-7-methyl-7H-pyrrolo[2,3-d]pyrimidin-2-amine] was run?
A: Its IC50 is 10 to 100 nM.

Q: CC(C)n1cc(Nc2ncc3c(Cl)cn(C)c3n2)c(Cl)n1 [Compound 3, 5-chloro-N-(3-chloro-1-isopropyl-1H-pyrazol-4-yl)-7-methyl-7H-pyrrolo[2,3-d]pyrimidin-2-amine] was tested. Which IC50 did it give?
A: Its IC50 is 10 to 100 nM.

Q: Cn1cc(Cl)c2cnc(Nc3cn(C4CCOCC4)nc3C(F)(F)F)nc21 [Compound 4, 5-chloro-7-methyl-N-(1-(tetrahydro-2H-pyran-4-yl)-3-(trifluoromethyl)-1H-pyrazol-4-yl)-7H-pyrrolo[2,3-d]pyrimidin-2-amine] was tested. Which IC50 did it give?
A: Its IC50 is 100 to 1000 nM.

Q: Cn1ncc(Nc2ncc3c(Cl)cn(C)c3n2)c1Cl [Compound 5, 5-chloro-N-(5-chloro-1-methyl-1H-pyrazol-4-yl)-7-methyl-7H-pyrrolo[2,3-d]pyrimidin-2-amine] was tested. Which IC50 did it give?
A: The IC50 was 10 to 100 nM.

Q: How did the IC50 turn out when CCn1cc(Cl)c2cnc(Nc3cnn(C)c3Cl)nc21 [Compound 6, 5-chloro-N-(5-chloro-1-methyl-1H-pyrazol-4-yl)-7-ethyl-7H-pyrrolo[2,3-d]pyrimidin-2-amine] was run?
A: The IC50 was 10 to 100 nM.

Q: Which IC50 does the source give for CC(C)n1cc(Nc2ncc3c(Cl)cn(C(C)C)c3n2)c(Cl)n1 [Compound 7, 5-chloro-N-(3-chloro-1-isopropyl-1H-pyrazol-4-yl)-7-isopropyl-7H-pyrrolo[2,3-d]pyrimidin-2-amine] here?
A: Its IC50 is 10 to 100 nM.

Q: How did the IC50 turn out when CCn1cc(Cl)c2cnc(Nc3cn(C(C)C)nc3Cl)nc21 [Compound 8, 5-chloro-N-(3-chloro-1-isopropyl-1H-pyrazol-4-yl)-7-ethyl-7H-pyrrolo[2,3-d]pyrimidin-2-amine] was run?
A: Its IC50 is 10 to 100 nM.

Q: CC(C)n1cc(Nc2ncc3c(Cl)cn(C)c3n2)c(C(F)(F)F)n1 [Compound 9, 5-chloro-N-(1-isopropyl-3-(trifluoromethyl)-1H-pyrazol-4-yl)-7-methyl-7H-pyrrolo[2,3-d]pyrimidin-2-amine] was tested. Which IC50 did it give?
A: Its IC50 is 100 to 1000 nM.

Q: Which IC50 does the source give for COCCn1cc(Nc2ncc3c(Cl)cn(C)c3n2)c(C(F)(F)F)n1 [Compound 10, 5-chloro-N-(1-(2-methoxyethyl)-3-(trifluoromethyl)-1H-pyrazol-4-yl)-7-methyl-7H-pyrrolo[2,3-d]pyrimidin-2-amine] here?
A: Its IC50 is 100 to 1000 nM.

Q: With CCCCn1cc(Nc2ncc3c(Cl)cn(C)c3n2)c(C(F)(F)F)n1 [Compound 11, N-(1-butyl-3-(trifluoromethyl)-1H-pyrazol-4-yl)-5-chloro-7-methyl-7H-pyrrolo[2,3-d]pyrimidin-2-amine] as the compound, how does the IC50 read?
A: Its IC50 is 1000 to 10000 nM.

Q: Which IC50 does the source give for CCn1cc(Cl)c2cnc(Nc3cn(CCOC)nc3Cl)nc21 [Compound 12, 5-chloro-N-(3-chloro-1-(2-methoxyethyl)-1H-pyrazol-4-yl)-7-ethyl-7H-pyrrolo[2,3-d]pyrimidin-2-amine] here?
A: The IC50 was 10 to 100 nM.

Q: How did the IC50 turn out when CCn1cc(Cl)c2cnc(Nc3cn(CC4CC4)nc3Cl)nc21 [Compound 13, 5-chloro-N-(3-chloro-1-(cyclopropylmethyl)-1H-pyrazol-4-yl)-7-ethyl-7H-pyrrolo[2,3-d]pyrimidin-2-amine] was run?
A: The IC50 was 10 to 100 nM.

Q: CCn1cc(Cl)c2cnc(Nc3cn(C4CC4)nc3Cl)nc21 [Compound 14, 5-chloro-N-(3-chloro-1-cyclopropyl-1H-pyrazol-4-yl)-7-ethyl-7H-pyrrolo[2,3-d]pyrimidin-2-amine] was tested. Which IC50 did it give?
A: Its IC50 is 10 to 100 nM.

Q: With Clc1nn(C2CC2)cc1Nc1ncc2c(Cl)cn(C3CC3)c2n1 [Compound 15, 5-chloro-N-(3-chloro-1-cyclopropyl-1H-pyrazol-4-yl)-7-cyclopropyl-7H-pyrrolo[2,3-d]pyrimidin-2-amine] as the compound, how does the IC50 read?
A: Its IC50 is 10 to 100 nM.

Q: CCn1cc(Cl)c2cnc(Nc3cnn(C4COC4)c3Cl)nc21 [Compound 16, 5-chloro-N-(5-chloro-1-(oxetan-3-yl)-1H-pyrazol-4-yl)-7-ethyl-7H-pyrrolo[2,3-d]pyrimidin-2-amine] was tested. Which IC50 did it give?
A: The IC50 was 10 to 100 nM.
